Key:
Assay in all cases: relative viability (nuclei count vs DMSO), 5 days (fraction); higher = more cells survive
[1] = compound: C1CC(C1)(C(=O)O)C(=O)O.[NH2-].[NH2-].[Pt+2] [Carboplatin] + NC(=O)Nc1cc(-c2cccc(F)c2)sc1C(=O)N[C@H]1CCCNC1 [AZD7762] (partner 0.2 µM)
How it was run: (§1)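 Lung cancer cell lines were seeded in 1536-well plates and dosed by pin tool the next day, with either a single drug or a fixed anchor-drug dose combined with five library-drug doses (not always all listed) spaced in √10 steps. Five days later, one step fixed the cells and stained their nuclei (final 0.05% Triton X-100, 1% formaldehyde, 1 ug/ml Hoechst), and nuclei were counted on 4× images. Relative viability is the nuclei count in treated wells divided by the count in vehicle wells, and each value is the median of duplicate plates.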

[2] = compound: NS(=O)(=O)OC[C@@H]1C[C@@H](n2ccc3c(N[C@H]4CCc5ccccc54)ncnc32)C[C@@H]1O [MLN4924] + O=C(c1cc(Cc2n[nH]c(=O)c3ccccc23)ccc1F)N1CCN(C(=O)C2CC2)CC1 [Olaparib] (partner 8 µM)
How it was run: as §1

[3] = compound: C1CC(C1)(C(=O)O)C(=O)O.[NH2-].[NH2-].[Pt+2] [Carboplatin] + Cc1nc(Nc2ncc(C(=O)Nc3c(C)cccc3Cl)s2)cc(N2CCN(CCO)CC2)n1 [Dasatinib] (partner 0.075 µM)
How it was run: as §1

[4] = compound: CC[C@H](C)N1C=C(C2=C(C=C(C=C21)C3=CN=C(C=C3)N4CCNCC4)C(=O)NCC5=C(C=C(NC5=O)C)C)C [GSK126] + NC(=O)Nc1cc(-c2cccc(F)c2)sc1C(=O)N[C@H]1CCCNC1 [AZD7762] (partner 0.2 µM)
How it was run: as §1

Cell Line	relative viability ([1]; first compound 0.08 µM)	relative viability ([1]; first compound 0.253 µM)	relative viability ([1]; first compound 0.8 µM)	relative viability ([1]; first compound 2.53 µM)	relative viability ([1]; first compound 8 µM)	relative viability ([2]; first compound 0.04 µM)	relative viability ([2]; first compound 0.1265 µM)	relative viability ([2]; first compound 0.4 µM)	relative viability ([2]; first compound 1.265 µM)	relative viability ([2]; first compound 4 µM)	relative viability ([3]; first compound 0.08 µM)	relative viability ([3]; first compound 0.253 µM)	relative viability ([3]; first compound 0.8 µM)	relative viability ([3]; first compound 2.53 µM)	relative viability ([3]; first compound 8 µM)	relative viability ([4]; first compound 0.08 µM)	relative viability ([4]; first compound 0.253 µM)	relative viability ([4]; first compound 0.8 µM)	relative viability ([4]; first compound 2.53 µM)	relative viability ([4]; first compound 8 µM)
NCI-H1793	0.667	0.457	0.393	0.334	0.58	0.833	0.964	0.991	0.297	0.194	0.432	0.384	0.394	0.355	0.381	0.646	0.394	0.299	0.592	0.292
HCC-44	1.06	1.03	1.02	1.01	0.992	0.882	0.748	0.694	0.538	0.414	–	–	–	–	–	1.04	1.12	0.99	0.983	1.01
NCI-H3122	1.04	1.01	0.946	0.974	0.885	0.535	0.235	0.251	0.112	0.0876	0.759	0.996	0.87	0.961	0.816	0.968	1.01	0.956	1.03	1.01
COR-L23	–	–	–	–	–	0.32	0.331	0.199	0.124	0.114	0.51	0.536	0.436	0.373	0.216	–	–	–	–	–
201T	0.643	0.608	0.612	0.482	0.423	0.832	0.589	0.548	0.225	0.267	0.575	0.571	0.569	0.487	0.576	0.704	0.622	0.617	0.65	0.567
NCI-H23	0.264	0.263	0.243	0.188	0.23	0.343	0.245	0.239	0.143	0.131	0.918	0.854	0.673	0.534	0.663	0.248	0.214	0.208	0.29	0.205
LCLC-103H	0.853	0.763	0.802	0.806	0.806	0.717	0.615	0.665	0.292	0.293	0.481	0.55	0.524	0.482	0.445	0.847	0.86	0.786	0.778	0.843
NCI-H2087	1.38	1.48	1.2	1.12	0.939	0.552	0.54	0.281	0.159	0.0852	0.85	0.932	0.833	0.689	0.613	1.52	1.31	1.18	1.41	1.43
NCI-H1944	0.616	0.5	0.584	0.559	0.354	0.405	0.296	0.304	0.162	0.139	0.235	0.206	0.226	0.22	0.174	0.476	0.46	0.441	0.547	0.461
HARA	0.279	0.344	0.265	0.279	0.383	0.401	0.413	0.127	0.0734	0.107	0.205	0.252	0.209	0.213	0.302	0.379	0.397	0.4	0.266	0.203
NCI-H2347	0.837	0.741	0.805	0.752	0.798	0.666	0.605	0.512	0.4	0.376	0.325	0.26	0.346	0.322	0.273	0.757	0.707	0.711	0.723	0.783
COR-L 105	–	–	–	–	–	0.5	0.568	0.427	0.278	0.335	0.364	0.351	0.37	0.293	0.297	–	–	–	–	–
A-427	0.75	0.759	0.778	0.762	0.795	0.467	0.335	0.296	0.24	0.241	0.728	0.772	0.716	0.704	0.657	0.82	0.703	0.667	0.825	0.542
HCC-15	1.17	1.22	1.16	1.33	0.644	0.318	0.164	0.159	0.106	0.0825	0.69	0.645	0.621	0.591	0.407	1.36	1.17	1.12	0.645	1.07
NCI-H1623	–	–	–	–	–	–	–	–	–	–	0.583	0.553	0.57	0.506	0.469	–	–	–	–	–
NCI-H2342	0.57	0.595	0.55	0.439	0.484	0.432	0.425	0.381	0.391	0.352	0.328	0.344	0.311	0.28	0.294	0.543	0.425	0.477	0.619	0.58
NCI-H2023	–	–	–	–	–	0.397	0.221	0.12	0.0617	0.0657	0.584	0.635	0.471	0.29	0.149	–	–	–	–	–
ABC-1	–	0.674	0.91	0.77	0.66	0.997	0.878	0.779	0.275	0.294	0.654	0.639	0.522	0.546	0.458	0.587	1.04	0.95	0.886	0.916

— the supplement of paper PMC10307832
